Experiments:
Assay in all cases: LC-MS/MS (MRM) of product GP
Assay type in all cases: biochemical
CsNUDX1-cyto = target: T1, CsNUDX1-cyto (Camellia sinensis, UniProt A0A4S4EYR7)
T1 construct: gene TEA_005538; full length, 156 residues; E. coli BL21 (DE3) Rosetta, pET15b, N-terminal His-tag, tested with and without tag

AtNUDX1 = target: T2, AtNUDX1 (Arabidopsis thaliana, UniProt Q9CA40); conditions: hydrolysed to GP; His-tagged positive control
T2 construct: gene NUDT1; E. coli BL21 (DE3) Rosetta, His-tag kept

CsNUDX1-chlo-Δ70 = target: T3, CsNUDX1-chlo-Δ70 (Camellia sinensis, UniProt A0A4S4EZL9); conditions: hydrolysed to GP; transit peptide removed
T3 construct: gene TEA_000488; N-terminal 70-residue transit peptide removed from the 220-residue protein; E. coli BL21 (DE3) Rosetta, pET15b, N-terminal His-tag
T3 sequence (A0A4S4EZL9 entry or part of it, stated change not applied): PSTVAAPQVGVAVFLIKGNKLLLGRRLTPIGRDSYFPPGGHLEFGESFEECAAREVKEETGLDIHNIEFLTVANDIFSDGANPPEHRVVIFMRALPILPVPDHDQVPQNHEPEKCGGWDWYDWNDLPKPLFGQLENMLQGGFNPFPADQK

T1 sequence (A0A4S4EYR7 1-156): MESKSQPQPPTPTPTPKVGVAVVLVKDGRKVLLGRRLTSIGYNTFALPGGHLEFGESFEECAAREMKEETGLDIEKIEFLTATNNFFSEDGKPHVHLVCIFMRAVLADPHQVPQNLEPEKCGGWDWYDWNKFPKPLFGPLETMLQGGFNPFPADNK
T2 sequence (Q9CA40 whole entry): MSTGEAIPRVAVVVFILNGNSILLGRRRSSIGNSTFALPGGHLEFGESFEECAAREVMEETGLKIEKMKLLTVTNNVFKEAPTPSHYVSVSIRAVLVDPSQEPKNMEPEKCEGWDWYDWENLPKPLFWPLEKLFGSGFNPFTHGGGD

Structure (SMILES) | LC-MS/MS (MRM) of product GP (CsNUDX1-cyto; from GPP) | LC-MS/MS (MRM) of product GP (AtNUDX1) | LC-MS/MS (MRM) of product GP (CsNUDX1-cyto; hydrolysed to GP, with and without His-tag) | LC-MS/MS (MRM) of product GP (CsNUDX1-chlo-Δ70)
CC(C)=CCC/C(C)=C/COP(=O)(O)O [geranyl monophosphate] | GP was verified in vitro as the direct chemical product of CsNUDX1-cyto | – | – | –
CC(C)=CCC/C(C)=C/COP(=O)(O)OP(=O)(O)O [geranyl pyrophosphate] | – | stronger GPP to GP hydrolysis activity than the Arabidopsis AtNUDX1 | CsNUDX1-cyto possessed a stronger GPP to GP hydrolysis activity than the Arabidopsis AtNUDX1 | exhibited an increased activity compared to the full length CsNUDX1-chlo

Source: article PMC9131077, “Cytosolic Nudix Hydrolase 1 Is Involved in Geranyl β-Primeveroside Production in Tea” (Frontiers in Plant Science, 2022)
